Test results reported in patent US11548888B2, “KRas G12C inhibitors” (Mirati Therapeutics, Inc., priority 2019, dated 2023).

Biological target: T1, KRas G12C (Homo sapiens, UniProt P01116, G12C)
T1 construct: NCI-H358 cells (ATCC CRL-5807) express KRas G12C
Experiment: Inhibition of KRas G12C-dependent cell growth: Phospho-ERK in NCI-H358 cells
Assay type: cell-based
Settings: NCI-H358 cells expressing KRas G12C; Phospho-ERK (Thr202/Tyr204) normalized to GAPDH; 3 hours compound; 4 parameter fit
Experimental: The cellular inhibition of KRAs G12C by exemplary compounds of the present invention was determined by measuring the amount of a downstream marker of KRas activity, phosphorylated ERK (“Phospho-ERK”).
NCI-H358 cells (ATCC CRL-5807) express KRas G12C and were grown in RPMI medium supplemented with 10% fetal bovine serum, penicillin/streptomycin and 10 mM HEPES. Cells were plated in poly-D-Lysine coated 96-well plates at a concentration of 50,000 cells/well and allowed to attach for 8-12 hours. Diluted compounds were then added at a final concentration of 0.5% DMSO. After 3 hours, the medium was removed, 150 μL of 4% formaldehyde was added and the plates were incubated for 20 minutes. The plates were washed with PBS, and permeabilized using 150 μL of ice cold 100% methanol for 10 minutes. Non-specific antibody binding to the plates was blocked using 100 μL Licor Blocking Buffer (Li-Cor Biotechnology, Lincoln Nebr.) for 1 hour at room temperature. Positive control samples and samples lacking cells were parallel processed with test samples as standards.
The amount Phospho-ERK was determined using an antibody specific for the phosphorylated form of ERK and compared to the amount of GAPDH. Primary antibodies used for detection were added as follows: Phospho-ERK (Cell Signaling cs9101) diluted 1:500 and GAPDH (Millipore MAB374) diluted 1:5000 in Licor block+0.05% Tween 20. The plates were incubated for 2 hours at room temperature. The plates were washed with PBS+0.05% Tween 20.
Secondary antibodies used to visualize primary antibodies were added as follows: Anti-rabbit-680 diluted 1:1000 and Anti-mouse-800 diluted 1:1000 in Licor Block+0.05% Tween 20 and incubated for 1 hour at room temperature. The plates were washed with PBS+0.05% Tween 20. A 100 μL aliquot of PBS was added to each well and the plates were read on a LICOR AERIUS plate reader.
The pERK(Thr202/Tyr204) signal was normalized with the GAPDH signal and percent of DMSO control values were calculated. IC50 values were generated using a 4 parameter fit of the dose response curve.

T1 sequence (P01116 1-188 isoform P01116-2 G12C): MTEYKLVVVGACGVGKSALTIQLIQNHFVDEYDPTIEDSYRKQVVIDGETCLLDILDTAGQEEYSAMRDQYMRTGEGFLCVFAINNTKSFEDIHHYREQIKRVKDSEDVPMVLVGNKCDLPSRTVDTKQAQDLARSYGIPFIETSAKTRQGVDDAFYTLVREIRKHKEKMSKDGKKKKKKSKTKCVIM

| Structure (SMILES) | IC50 |
| --- | --- |
| C=C(F)C(=O)N1CCN(c2nc(OCC3CN(C)CC3(F)F)nc3c(F)c(-c4cccc5ccc(F)c(Cl)c45)ncc23)C[C@@H]1CC#N (single isomer, unassigned) [Example 179] | 0.224 µM |
| C=C(F)C(=O)N1CCN(c2nc(OCC3CN(C)CC3(F)F)nc3c(F)c(-c4cccc5ccc(F)c(Cl)c45)ncc23)C[C@@H]1CC#N (single isomer, unassigned) [Example 180] | 0.362 µM |
| C=CC(=O)N1CCN(c2ncnc3cc(-c4cc(O)cc5ccccc45)ncc23)CC1 [Example 1, 1-(4-(7-(3-hydroxynaphthalen-1-yl)pyrido[4,3-d]pyrimidin-4-yl)piperazin-1-yl)prop-2-en-1-one] | 1.92 µM |
| C=CC(=O)N1CCN(c2ncnc3cc(-c4cc(O)cc5ccccc45)ncc23)CC1C#N (centres unmarked) [Example 2, 1-acryloyl-4-(7-(3-hydroxynaphthalen-1-yl)pyrido[4,3-d]pyrimidin-4-yl)piperazine-2-carbonitrile] | 0.325 µM |
| C=CC(=O)N1CCN(c2ncnc3cc(-c4c(O)cccc4F)ncc23)CC1 [Example 3, 1-(4-(7-(2-fluoro-6-hydroxyphenyl)pyrido[4,3-d]pyrimidin-4-yl)piperazin-1-yl)prop-2-en-1-one] | 16 µM |
| C=CC(=O)N1CCN(c2nc(OCCN3CCOCC3)nc3cc(-c4cc(O)cc5ccccc45)ncc23)CC1 [Example 4, 1-(4-(7-(3-hydroxynaphthalen-1-yl)-2-(2-morpholinoethoxy)pyrido[4,3-d]pyrimidin-4-yl)piperazin-1-yl)prop-2-en-1-one] | 3.43 µM |
| C=CC(=O)N1CCN(c2nc(OC[C@@H]3CCCN3C)nc3cc(-c4cccc5ccccc45)ncc23)C[C@@H]1CC#N [Example 5, 2-[(2S)-4-[2-[[(2S)-1-methylpyrrolidin-2-yl]methoxy]-7-(1-naphthyl)pyrido[4,3-d]pyrimidin-4-yl]-1-prop-2-enoyl-piperazin-2-yl]acetonitrile] | 0.045 µM |
| C=CC(=O)N1CCN(c2nc(OC[C@@H]3CCCN3C)nc3cc(-c4cc(O)cc5ccccc45)ncc23)CC1 [Example 6, 1-[4-[7-(3-hydroxy-1-naphthyl)-2-[[(2S)-1-methylpyrrolidin-2-yl]methoxy]pyrido[4,3-d]pyrimidin-4-yl]piperazin-1-yl]prop-2-en-1-one] | 0.3 µM |
| C=CC(=O)N1CCN(c2nc(OC[C@@H]3CCCN3C)nc3c(F)c(-c4cccc5ccccc45)ncc23)C[C@@H]1CC#N [Example 7, 2-[(2S)-4-[8-fluoro-2-[[(2S)-1-methylpyrrolidin-2-yl]methoxy]-7-(1-naphthyl)pyrido[4,3-d]pyrimidin-4-yl]-1-prop-2-enoyl-piperazin-2-yl]acetonitrile] | 0.007 µM |
| C=C(F)C(=O)N1CCN(c2nc(OC[C@@H]3CCCN3C)nc3c(F)c(-c4cccc5ccccc45)ncc23)C[C@@H]1CC#N [Example 8, 2-[(2S)-4-[8-fluoro-2-[[(2S)-1-methylpyrrolidin-2-yl]methoxy]-7-(1-naphthyl)pyrido[4,3-d]pyrimidin-4-yl]-1-(2-fluoroprop-2-enoyl)piperazin-2-yl]acetonitrile] | 0.132 µM |
| C=CC(=O)N1C2CCC1CN(c1nc(OC[C@@H]3CCCN3C)nc3c(F)c(-c4cc(O)cc5ccccc45)ncc13)C2 [Example 9, 1-[3-[8-fluoro-7-(3-hydroxy-1-naphthyl)-2-[[(2S)-1-methylpyrrolidin-2-yl]methoxy]pyrido[4,3-d]pyrimidin-4-yl]-3,8-diazabicyclo[3.2.1]octan-8-yl]prop-2-en-1-one] | 0.142 µM |
| C=CC(=O)N1CCN(c2nc(OC[C@@H]3CCCN3C)nc3c(F)c(-c4cccc5cccc(C)c45)ncc23)C[C@@H]1CC#N [Example 10, 2-[(2S)-4-[8-fluoro-7-(8-methyl-1-naphthyl)-2-[[(2S)-1-methylpyrrolidin-2-yl]methoxy]pyrido[4,3-d]pyrimidin-4-yl]-1-prop-2-enoyl-piperazin-2-yl]acetonitrile] | 0.002 µM |
| C=C(F)C(=O)N1CCN(c2nc(OC[C@@H]3CCCN3C)nc3c(F)c(-c4cccc5cccc(C)c45)ncc23)C[C@@H]1CC#N [Example 11, 2-[(2S)-4-[8-fluoro-7-(8-methyl-1-naphthyl)-2-[[(2S)-1-methylpyrrolidin-2-yl]methoxy]pyrido[4,3-d]pyrimidin-4-yl]-1-(2-fluoroprop-2-enoyl)piperazin-2-yl]acetonitrile] | 0.084 µM |
| Cc1cccc2cccc(-c3ncc4c(N5CCN(C(=O)/C=C/CF)[C@@H](CC#N)C5)nc(OC[C@@H]5CCCN5C)nc4c3F)c12 [Example 12, 2-[(2S)-1-[(E)-4-fluorobut-2-enoyl]-4-[8-fluoro-7-(8-methyl-1-naphthyl)-2-[[(2S)-1-methylpyrrolidin-2-yl]methoxy]pyrido[4,3-d]pyrimidin-4-yl]piperazin-2-yl]acetonitrile] | 0.031 µM |
| C=C(F)C(=O)N1CCN(c2nc(OC[C@@H]3CC(F)(F)CN3C)nc3c(F)c(-c4cccc5cccc(C)c45)ncc23)C[C@@H]1CC#N [Example 13, 2-((S)-4-(2-(((S)-4,4-difluoro-1-methylpyrrolidin-2-yl)methoxy)-8-fluoro-7-(8-methylnaphthalen-1-yl)pyrido[4,3-d]pyrimidin-4-yl)-1-(2-fluoroacryloyl)piperazin-2-yl)acetonitrile] | 0.127 µM |
| C=C(F)C(=O)N1CCN(c2nc(OC[C@@H]3C[C@@H](F)CN3C)nc3c(F)c(-c4cccc5cccc(C)c45)ncc23)C[C@@H]1CC#N [Example 14, 2-[(2S)-4-[8-fluoro-2-[[(2S,4R)-4-fluoro-1-methyl-pyrrolidin-2-yl]methoxy]-7-(8-methyl-1-naphthyl)pyrido[4,3-d]pyrimidin-4-yl]-1-(2-fluoroprop-2-enoyl)piperazin-2-yl]acetonitrile] | 0.119 µM |
| C=C(F)C(=O)N1CCN(c2nc(OC[C@@H]3C[C@@H](OC)CN3C)nc3c(F)c(-c4cccc5cccc(C)c45)ncc23)C[C@@H]1CC#N [Example 15, 2-[(2S)-4-[8-fluoro-2-[[(2S,4R)-4-methoxy-1-methyl-pyrrolidin-2-yl]methoxy]-7-(8-methyl-1-naphthyl)pyrido[4,3-d]pyrimidin-4-yl]-1-(2-fluoroprop-2-enoyl)piperazin-2-yl]acetonitrile] | 0.05 µM |
| C=C(F)C(=O)N1CCN(c2nc(OC[C@H]3CCCN3C)nc3c(F)c(-c4cccc5cccc(C)c45)ncc23)C[C@@H]1CC#N [Example 16, 2-((S)-4-(8-fluoro-7-(8-methylnaphthalen-1-yl)-2-(((R)-1-methylpyrrolidin-2-yl)methoxy)pyrido[4,3-d]pyrimidin-4-yl)-1-(2-fluoroacryloyl)piperazin-2-yl)acetonitrile] | 0.118 µM |
| Cc1cccc2cccc(-c3ncc4c(N5CCN(C(=O)/C=C/CF)[C@@H](CC#N)C5)nc(OC[C@@H]5C[C@@H](F)CN5C)nc4c3F)c12 [Example 17, 2-[(2S)-1-[(E)-4-fluorobut-2-enoyl]-4-[8-fluoro-2-[[(2S,4R)-4-fluoro-1-methyl-pyrrolidin-2-yl]methoxy]-7-(8-methyl-1-naphthyl)pyrido[4,3-d]pyrimidin-4-yl]piperazin-2-yl]acetonitrile] | 0.059 µM |
| C=C(F)C(=O)N1CCN(c2nc(OC[C@@H]3CCCN3C)nc3c(F)c(-c4cccc5cccc(Cl)c45)ncc23)C[C@@H]1CC#N [Example 18, 2-((S)-4-(7-(8-chloronaphthalen-1-yl)-8-fluoro-2-(((S)-1-methylpyrrolidin-2-yl)methoxy)pyrido[4,3-d]pyrimidin-4-yl)-1-(2-fluoroacryloyl)piperazin-2-yl)acetonitrile] | 0.05 µM |
| C=CC(=O)N1CCN(c2nc(OC[C@@H]3CCCN3C)nc3c(F)c(-c4cccc5cccc(Cl)c45)ncc23)C[C@@H]1CC#N [Example 19, 2-((S)-1-acryloyl-4-(7-(8-chloronaphthalen-1-yl)-8-fluoro-2-(((S)-1-methylpyrrolidin-2-yl)methoxy)pyrido[4,3-d]pyrimidin-4-yl)piperazin-2-yl)acetonitrile] | 0.002 µM |
| C=CC(=O)N1CCN(c2nc(OC[C@@H]3CCCN3C)nc3c(F)c(-c4cncc5cccc(Cl)c45)ncc23)C[C@@H]1CC#N [Example 20, 2-[(2S)-4-[7-(5-chloro-4-isoquinolyl)-8-fluoro-2-[[(2S)-1-methylpyrrolidin-2-yl]methoxy]pyrido[4,3-d]pyrimidin-4-yl]-1-prop-2-enoyl-piperazin-2-yl]acetonitrile] | 0.003 µM |
| C=C(F)C(=O)N1CCN(c2nc(OC[C@@H]3CC(F)(F)CN3C)nc3c(F)c(-c4cccc5cccc(Cl)c45)ncc23)C[C@@H]1CC#N [Example 21, 2-((S)-4-(7-(8-chloronaphthalen-1-yl)-2-(((S)-4,4-difluoro-1-methylpyrrolidin-2-yl)methoxy)-8-fluoropyrido[4,3-d]pyrimidin-4-yl)-1-(2-fluoroacryloyl)piperazin-2-yl)acetonitrile] | 0.105 µM |
